Source: article PMC9791066, “Investigations into the antibacterial effects and potential mechanism of gambogic acid and neogambogic acid” (Frontiers in Microbiology, 2022)
Converted amounts (≈) assume the structure as drawn. Read-outs that look alike come from different tables or passages of the source.

Tests used:
[1] = test system: Escherichia coli ATCC25922; assay: MIC, microtiter broth dilution; assay type: cell-based; settings: LB broth, 18 h
Experimental: (§1) Antibacterial activities were performed by examining the minimal inhibitory concentrations (MICs), which was determined by a microtiter broth dilution method as previously described ([Cotsonas King and Wu, 2009]), with minor modifications. Briefly, 96-well plates (Corning) were inoculated with 100 μl of LB broth per well containing 7 × 10^5 CFU/mL bacteria, followed by adding 100 μl of LB broth containing two-fold serial dilutions of the test compounds. […] After 18 h of incubation, the MIC was determined to be the lowest concentration without visible bacterial growth. The results were the averages of at least three biological replicates.

[2] = test system: Staphylococcus aureus ATCC29213; assay: MIC, microtiter broth dilution; assay type: cell-based; settings: LB broth, 18 h
Experimental: as §1

[3] = test system: Listeria monocytogenes ATCC19117; assay: MIC, microtiter broth dilution; assay type: cell-based; settings: LB broth, 18 h
Experimental: as §1

[4] = test system: Enterococcus faecalis ATCC29212; assay: MIC, microtiter broth dilution; assay type: cell-based; settings: LB broth, 18 h
Experimental: as §1

Escherichia coli BAS 849 = assay: microbe, parasite or virus in culture; assay type: cell-based; settings: LB broth, 18 h, strain with deficient outer-membrane structure
Experimental: as §1

[5] = test system: Escherichia coli BL21 (DE3); assay: microbe, parasite or virus in culture; assay type: cell-based; settings: LB broth, 18 h
Experimental: as §1

Escherichia coli DH5α = assay: microbe, parasite or virus in culture; assay type: cell-based; settings: LB broth, 18 h
Experimental: as §1

MRSA = assay: MIC, microtiter broth dilution; assay type: cell-based, Staphylococcus aureus; settings: LB broth, 18 h
Experimental: as §1

[6] = Staphylococcus aureus, ATCC29213, read-out: MIC
[7] = Listeria monocytogenes, ATCC19117, read-out: MIC
[8] = Enterococcus faecalis, ATCC29212, read-out: MIC
[9] = Escherichia coli, read-out: MIC
[10] = Staphylococcus aureus, MRSA, read-out: MIC

Compound | MIC [1] [µg/mL] | MIC [2] [µg/mL] | MIC [3] [µg/mL] | MIC [4] [µg/mL] | MIC (Escherichia coli BAS 849) [µg/mL] | MIC [5] [µg/mL] | MIC (Escherichia coli DH5α) [µg/mL] | MIC (MRSA) [µg/mL] | MIC ([1]; Escherichia coli, ATCC25922, read-out: MIC) [µg/mL] | MIC [2, 6] [µg/mL] | MIC [3, 7] [µg/mL] | MIC [4, 8] [µg/mL] | MIC (Escherichia coli BAS 849; Escherichia coli, BAS849, read-out: MIC) [µg/mL] | MIC [5, 9] [µg/mL] | MIC (Escherichia coli DH5α; [9]) [µg/mL] | MIC (MRSA; [10]) [µg/mL]
COc1cc(O)c2c(O)c3c(c4c2c1[C@]1(C4)C(C)=CCCC1(C)C)[C@H](O)[C@@]1(O)CC(=O)C(C(N)=O)=C(O)[C@@]1(O)C3=O [VirA, viridicatumtoxins A] | > 64 | 1 (≈ 1.77 µM) | 2 (≈ 3.54 µM) | 2 (≈ 3.54 µM) | 8 (≈ 14.1 µM) | > 64 | > 64 | 1 (≈ 1.77 µM) |  |  |  |  |  |  |  | 
CC1(C)S[C@@H]2[C@H](NC(=O)[C@H](N)c3ccccc3)C(=O)N2[C@H]1C(=O)O [Amp, ampicillin] |  |  |  |  |  |  |  |  | 1 (≈ 2.86 µM) | 1 (≈ 2.86 µM) | 1 (≈ 2.86 µM) | 0.5 (≈ 1.43 µM) | 0.5 (≈ 1.43 µM) | 1 (≈ 2.86 µM) | 2 (≈ 5.72 µM) | 1 (≈ 2.86 µM)
CN(C)[C@@H]1C(O)=C(C(N)=O)C(=O)[C@@]2(O)C(O)=C3C(=O)c4c(O)cccc4[C@@](C)(O)[C@H]3C[C@@H]12 [Tet, Tetracycline] |  |  |  |  |  |  |  |  |  | 0.5 (≈ 1.13 µM) | 2 (≈ 4.5 µM) | 8 (≈ 18 µM) |  |  |  | 2 (≈ 4.5 µM)
COc1cc(O)c2c(O)c3c(c4c2c1C1(C4)C(C)=CCCC1(C)C)C1(O)OC12CC(=O)C(C(N)=O)=C(O)C2(O)C3=O (stereo not shown) [VirB, viridicatumtoxins B] | > 64 | 1 (≈ 1.77 µM) | 1 (≈ 1.77 µM) | 1 (≈ 1.77 µM) | 8 (≈ 14.2 µM) | > 64 | > 64 | 1 (≈ 1.77 µM) |  |  |  |  |  |  |  | 
